In patent publication US12263248B2, “Compounds and compositions for intracellular delivery of therapeutic agents” (ModernaTX, Inc., priority 2018, dated 2025):

Tests used:
luciferase (Luc) mRNA [1] = test: Luc expression (total flux) after intramuscular administration; format: in vivo, mice; settings: for i.m. Lipid/MC3 0.01 mpk, Luc, 6 h: Table 3B; for Novel lipid/MC3 expression ratio, 6 hr. time point, i.m. Luc: intramuscular, relative to MC3 formulation
Method in brief: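 Total-flux luciferase signal in mice after one intramuscular injection. Nanoparticle formulations contained modified Luc mRNA, either alone or co-dosed with H10 mRNA (e.g., 0.0005 or 0.005 mpk of each), giving 0.001 or 0.01 mpk.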

[2] = Encapsulation efficiency of RNA (QUANT-IT RIBOGREEN RNA assay); format: physicochemical
Method in brief: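 RiboGreen fluorescence (ex ~480, em ~520 nm) compared between intact samples and Triton X-100-lysed samples after 15 min at 37 °C in TE buffer, pH 7.5. Percent free RNA is the blank-corrected intact/disrupted ratio.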

luciferase mRNA = test: Luciferase expression after subcutaneous administration to mice; format: in vivo, female CD-1 mice; settings: 0.5 mpk, relative to MC3
Method: (§1) The effect of the lipids of the disclosure on protein expression upon subcutaneous administration was studied. Formulations containing lipids of the disclosure and an mRNA expressing luciferase or hEPO were administered subcutaneously to female CD-1 mice at 0.5 mpk. Expression levels were obtained via whole body luminescent imaging (BLI) at 3, 6 and 24 hours after injection and expression levels in liver, spleen and at the injection site were evaluated ex vivo after 24 hours. […] See also Tables 35 and 36, and FIGS. 19 and 27.
Table 35 summarizes the luciferase expression levels using various nanoparticle compositions of the disclosure, and the luciferase expression levels using various nanoparticle compositions of the disclosure as compared to the luciferase expression level using an MC3 formulation after subcutaneous administration, as described above.

[3] = Particle size and polydispersity index of nanoparticle compositions (Zetasizer Nano ZS); format: physicochemical
Method in brief: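 Measured in 1×PBS by Zetasizer Nano ZS.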

[4] = Apparent (surface) pKa of the LNP formulation (TNS assay); format: physicochemical; settings: for pKa: Table 1A; for App. pKa: Table 3F
Method in brief: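 Fluorescence of TNS probe added to LNP samples (mRNA 0.04 mg/mL) was read across 21 buffers of pH about 3-12, triplicate per pH. The inflection point of the sigmoidal fluorescence-vs-pH curve, […], gives apparent pKa; method validated in 1× PBS and Tris/sucrose buffer.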

hEPO mRNA [5] = test: hEPO expression after subcutaneous administration to mice; format: in vivo, female CD-1 mice; settings: relative to MC3
Method: as §1
Table 36 summarizes the hEPO expression levels using various nanoparticle compositions of the disclosure as compared to the hEPO expression level using a formulation containing MC3 or Compound 18, following subcutaneous administration, as described above.

hEPO mRNA [6] = test: hEPO expression after intramuscular administration to mice; format: in vivo; settings: Table 3I, hEPO
Method: The expression of hEPO and cytokine induction in mice intravenously administered a nanoparticle composition at a dose of 0.5 mpk were measured at 3, 6, and 24 hours. […] The expression of hEPO in mice intramuscularly administered a nanoparticle composition from Table 1B at a dose of 0.01 mpk were measured at 3, 6, and 24 hours.
(§2) Blood collection and analysis for hEPO. Blood was collected from mice or rats via the tail vein and hEPO concentrations were determined using a hEPO ELISA assay.

[7] = Lipid clearance: lipid level in mouse liver tissue (LC-MS/MS); format: in vivo; settings: Table 3E, mouse liver
Method: Quantification of Lipid by LC-MS/MS: Liver samples were homogenized following addition of 19 eq. (w/v) of water (DF=20). Protein was precipitated and analyzed against calibration standards prepared in matching blank. Chromatographic separation and quantification was accomplished with a LC-MS/MS System. Samples were injected and separated via HPLC A triple-quadrupole MS/MS system operated in positive ion mode was used for signal detection.

luciferase (Luc) mRNA [8] = test: Luc expression, whole body bioluminescence after intravenous administration to mice; format: in vivo; settings: Table 3E; intravenous
Method in brief: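 Bioluminescence, read as region-of-interest total flux at 3, 6 and 24 h, followed a single 0.5 mg/kg intravenous dose of Luc mRNA-loaded nanoparticles in mice (n=6). Luciferin substrate (200 μL, 15 mg/mL in PBS) was injected intraperitoneally into CD-1 mice 15 minutes ahead of each imaging point.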

[9] = Residual lipid levels in rat liver and spleen (UPLC-MS); format: in vivo; settings: Table 19B, liver, 24 h
Method: At 48 h liver tissue was harvested for lipid quantification. To pre-weighed tissues, Milli-Q water was added (900 μL water per 100 mg tissue). Tissues were homogenized using an Omni probe homogenizer until uniform. 50 μL of samples and matrix calibration standards were aliquoted into a 96-well plate. 50 μL of blank matrix for matrix blanks and control blanks were aliquoted. 400 μL is spiking solution were manually added to all samples except matrix blanks. 400 μL of 50:50 ACN:IPA were manually added to matrix blanks. The plate was covered and the samples vortexed and centrifuged for 5 minutes at >3000 rpm. 200 μL of the samples were transferred into a clean 96-well plate for analysis. Samples were analyzed on a Waters Acquity UPLC using a Higgins Analytical Clipeus C8 column ([…], 30×2.1 mm) and a gradient of either 70-95% or 60-95% (Mobile Phase A: 5 mM ammonium formate in 50:50:1 H2O:MeOH:formic acid; Mobile Phase B: 5 mM ammonium formate in 100:1 MeOH:formic acid) over 1.3 min at 1.2 mL/min (column temperature 55° C.). Detection was based on electrospray ionization (ESI) in positive mode using a Sciex API5500 Mass Spectrometer.
(§3) The expression of hEPO in rats intravenously administered a nanoparticle composition at a dose of 0.2 mpk or 2.0 mpk was measured at 6 hours. Table 16 summarize the ratio of hEPO expression levels using various nanoparticle compositions as compared to the hEPO expression level using MC3 formulation and the lipid levels in the liver measured 48 hours after administration, as described above. Tables 17 and 18 summarize the lipid levels in the liver and spleen measured 48 hours after administration of Compounds 28, 33, 53, and 54. Liver and spleen levels represent the average values calculated for 3 rats in each group. As is shown in Tables 17 and 18, less than 10% of Compounds 28, 33, 53, and 54 remained in the liver after 48 hours, while greater than 60% of MC3 remained.
(§4) 005781 The expression of hEPO and lipid levels in the liver and spleen in rats intravenously administered a nanoparticle composition at a dose of 0.2 mpk was measured at various time points. Compounds 18 and 25 were selected for comparison with MC3. Lipids were formulated according to the standard MC3 formulation described above. Rats were administered intravenously a single 0.2 mpk dose and expression monitored at 0.25, 0.5, 1, 2, 4, 8, 24, and 48 hours after administration.

hEPO mRNA [10] = test: hEPO expression after intravenous administration to rats; format: in vivo, rat; settings: Table 19B; for [hEPO]: species, dose and time not given
Method: The expression of hEPO and cytokine induction in rats intravenously administered a nanoparticle composition at a dose of 2.0 mpk was measured at 6 h.
as §3
The expression of hEPO induced by intravenous administration to rats of nanoparticle compositions at various doses was measured at 2, 4, 6, 8, 24, and 48 hour time points. FIGS. 3-6 respectively summarize the hEPO expression measured upon intravenous administration of formulations including Compounds 26, 18, 25, and MC3 to rat at various doses. The lipid levels of Compound 26 in the liver after 48 hours were about 19%.
as §4, §2

[11] = Table 1D, for subcutaneous administration, # formulated with hEPO mRNA
[12] = Table 1E, compositions for subcutaneous administration
[13] = Table 1A, lipid:DSPC:cholesterol:PEG-DMG 50:10:38.5:1.5 mol %
[14] = Table 1B, formulated with hEPO mRNA

SMILES	i.m. Lipid/MC3 0.01 mpk, Luc, 6 h (luciferase (Luc) mRNA [1])	EE (%) ([2]; Table 1A)	PDI ([3]; Table 1A)	Size (nm) [3, 13] [nm]	pKa [4]	App. pKa [4]	Lipid/MC3 6 h timepoint (hEPO mRNA [6])	Lipid/MC3 AUC (hEPO mRNA [6])	further results
CCCCCCCCCOC(=O)CCCCCCCN(CCCCCCCC(=O)OC(CCCCCCCC)CCCCCCCC)CCCN/C(=N/C#N)N(C)C [Compound 168, Heptadecan-9-yl (Z)-8-((3-(2-cyano-3,3-dimethylguanidino)propyl)(8-(nonyloxy)-8-oxooctyl)amino)octanoate]	16.0	91.4	0.20	102.3	6.74	6.90	–	–	flux measured at 6 h relative to the MC3 formulation (luciferase (Luc) mRNA [1]; intramuscular administration (i.m.), in words): sixteen; % EE [2, 11]: 96.1%; % EE [2, 12]: 95%; Novel lipid/MC3 expression ratio, 6 hr. time point, s.c. Luc 0.5 mpk (luciferase mRNA): 0.58; PDI [3, 11]: 0.07; Size (nm) [3, 11]: 87.4 nm; PDI [3, 12]: 0.08; Size (nm) [3, 12]: 85.0 nm; Novel lipid/MC3 expression ratio, 6 hr. time point, s.c. hEPO 0.5 mpk (hEPO mRNA [5]): 2.36
CCCCCCCCCOC(=O)CCCCCCCN(CCCCCCCC(=O)OC(CCCCCCCC)CCCCCCCC)CCCNc1c(N(C)C)c(=O)c1=O [Compound 169, Heptadecan-9-yl 8-((3-((2-(dimethylamino)-3,4-dioxocyclobut-1-en-1-yl)amino)propyl)(8-(nonyloxy)-8-oxooctyl)amino)octanoate]	3.3	99.4	0.17	87.4	6.77.	7.63	4.6	4.7	–
CCCCCCCCCOC(=O)CCCCCCCN(CCCCCCCC(=O)OC(CCCCCCCC)CCCCCCCC)CCCN/C(=C/[N+](=O)[O-])NC [Compound 170, Heptadecan-9-yl (E)-8-((3-((1-(methylamino)-2-nitrovinyl)amino)propyl)(8-(nonyloxy)-8-oxooctyl)amino)octanoate]	5.3	96.7	0.18	96.0	6.31	6.60	5.9	5.7	–
CCCCCCCCCOC(=O)CCCCCCCN(CCCCCCCC(=O)OC(CCCCCCCC)CCCCCCCC)CCCNC(=O)COC [Compound 178, Heptadecan-9-yl 8-((3-(2-methoxyacetamido)propyl)(8-(nonyloxy)-8-oxooctyl)amino)octanoate]	–	94.7	0.12	104.2	6.90	–	10.4	9.3	Novel lipid/MC3 expression ratio, 6 hr. time point, i.m. Luc (luciferase (Luc) mRNA [1]): 7.14
CCCCCCCCCOC(=O)CCCCCCCN(CCCCCCCC(=O)OC(CCCCCCCC)CCCCCCCC)CCCNc1c(NC)c(=O)c1=O [Compound 182, Heptadecan-9-yl 8-((3-((2-(methylamino)-3,4-dioxocyclobut-1-en-1-yl)amino)propyl)(8-(nonyloxy)-8-oxooctyl)amino)octanoate]	–	99.0	0.14	84.4	6.48	–	1.6	1.2	–
CCCCCCCCC(CCCCCCCC)OC(=O)CCCCCCCN(CCO)CCCCCCCC(=O)OCC(C)CCCCCCC (centres unmarked) [Compound 184, Heptadecan-9-yl 8-((2-hydroxyethyl)(8-((2-methylnonyl)oxy)-8-oxooctyl)amino)octanoate]	–	94.2	0.13	77.2	6.47	–	–	–	% Remaining dose at 6 h ([7]; 6 h): 0.282%; % Remaining dose at 24 h ([7]; 24 h): 0%; EE (%) [2, 14]: 96.5%; 6 h BLI Lipid/MC3 (luciferase (Luc) mRNA [8]): 7.46; % dose remaining, liver, 24 h [9]: 0.04%; PDI [3, 14]: 0.16; Size (nm) [3, 14]: 85.8 nm; AUC (hEPO) (hEPO mRNA [10]): 1.41e+08 pg·h/mL; Lipid/MC3 ([hEPO] ratio) (hEPO mRNA [10]; relative to MC3): 7.13; Lipid/MC3 AUC (hEPO mRNA [10]; relative to MC3): 7.64; [hEPO] (hEPO mRNA [10]): 1.05e+07 pg/mL
CCCCCCCCCOC(=O)CCCCCCCN(CCCCCCCC(=O)OC(CCCCCCCC)CCCCCCCC)CCCNC(=O)C(C)C [Compound 194, Heptadecan-9-yl 8-((3-isobutyramidopropyl)(8-(nonyloxy)-8-oxooctyl)amino)octanoate]	–	–	–	–	–	–	5.5	6.2	–
CCCCCCCCCOC(=O)CCCCCCCN(CCCCCCCC(=O)OC(CCCCCCCC)CCCCCCCC)CCCN/C(=N/[N+](=O)[O-])NC [Compound 200, Heptadecan-9-yl (E)-8-((3-(3-methyl-2-nitroguanidino)propyl)(8-(nonyloxy)-8-oxooctyl)amino)octanoate]	–	97.65	0.15	76.2	–	–	2.6	2.7	Novel lipid/MC3 expression ratio, 6 hr. time point, i.m. Luc (luciferase (Luc) mRNA [1]): 8.11; EE (%) [2, 14]: 97.3%; % dose remaining, liver, 24 h [9]: 0.36%; PDI [3, 14]: 0.19; Size (nm) [3, 14]: 95.3 nm; AUC (hEPO) (hEPO mRNA [10]): 2.4e+07 pg·h/mL; Lipid/MC3 AUC (hEPO mRNA [10]; relative to MC3): 1.30; [hEPO] (hEPO mRNA [10]): 1.72e+06 pg/mL
CCCCCCCCCOC(=O)CCCCCCCN(CCCCCCCC(=O)OC(CCCCCCCC)CCCCCCCC)CCCNC(=N)N [Compound 207, Heptadecan-9-yl 8-((3-guanidinopropyl)(8-(nonyloxy)-8-oxooctyl)amino)octanoate]	–	–	–	–	–	–	–	–	% EE [2, 11]: 102%; PDI [3, 11]: 0.22; Size (nm) [3, 11]: 81.4 nm; Novel lipid/MC3 expression ratio, 6 hr. time point, s.c. hEPO 0.5 mpk (hEPO mRNA [5]): 0
CCCCCCCCCOC(=O)CCCCCCCN(CCCCCCCC(=O)OC(CCCCCCCC)CCCCCCCC)CCNC(C)=O [Compound 244, Heptadecan-9-yl 8-((2-acetamidoethyl)(8-(nonyloxy)-8-oxooctyl)amino)octanoate]	–	–	–	–	–	–	0.4	0.4	–
